Read-outs that look alike come from different tables or passages of the source.
Key:
Aedes aegypti mosquitoes [1] = test: Drug effect on mosquito fertility (percentage of eggs hatched); assay type: in vivo; conditions: 100 eggs laid 48-96 h post-treatment; IVM 0.1, KCZ 5, RIF 10, RTV 10, PBO 10 μg/ml in blood
Method: The mixtures were rotated at room temperature for 30 min to ensure a uniform drug distribution (Rotator Genie, Scientific Industries, Bohemia, USA). […] Twelve hours later, the tap water was also removed to starve the mosquitoes. […] The mosquitoes were then feeding from blood through the netting and the Parafilm membrane. […] The photoperiod of the climate chamber and the insectary were synchronised. […] The engorged mosquitoes were either directly frozen at -20°C or returned to the climate chamber for certain time periods to assess the PK. […] Blood feeding was done as described above. […] In contrast to the PK experiments, the mosquitoes had unlimited access to water because a moistened oviposition substrate was inserted into the paper cup. […] Any hatched larva was counted and transferred to a rearing tray with a plastic pipette. The fertility was calculated as the percentage of eggs hatched. […] R Foundation for Statistical Computing, http://www.R-project.org, Vienna, Austria). Normality was assessed using the Shapiro-Wilk test. For normally distributed data (mortality, fecundity), group differences were assessed with one-way ANOVA testing, and, where applicable, followed up with Tukey's test. Group differences in fertility (not normally distributed) were evaluated with Kruskal-Wallis one-way analysis of variance, and Wilcoxon rank sum testing as post-hoc.

Aedes aegypti mosquitoes [2] = test: Drug effect on mosquito fecundity (eggs laid after 96 h); assay type: in vivo; conditions: 4 days; IVM 0.1, KCZ 5, RIF 10, RTV 10, PBO 10 μg/ml in blood; 50 mosquitoes
Method: The mixtures were rotated at room temperature for 30 min to ensure a uniform drug distribution (Rotator Genie, Scientific Industries, Bohemia, USA). […] Twelve hours later, the tap water was also removed to starve the mosquitoes. […] The mosquitoes were then feeding from blood through the netting and the Parafilm membrane. […] The photoperiod of the climate chamber and the insectary were synchronised. […] The engorged mosquitoes were either directly frozen at -20°C or returned to the climate chamber for certain time periods to assess the PK. […] Blood feeding was done as described above. […] In contrast to the PK experiments, the mosquitoes had unlimited access to water because a moistened oviposition substrate was inserted into the paper cup. Fecundity was defined as the total number of eggs laid after 96 h. […] The filter paper served as the oviposition substrate. The cotton wool was soaked with fresh water and covered by a new filter paper after 48, 72, and 96 h post-treatment. After the assay, the eggs were left to mature for 24 h in the insectary. […] R Foundation for Statistical Computing, http://www.R-project.org, Vienna, Austria). Normality was assessed using the Shapiro-Wilk test. For normally distributed data (mortality, fecundity), group differences were assessed with one-way ANOVA testing, and, where applicable, followed up with Tukey's test. Group differences in fertility (not normally distributed) were evaluated with Kruskal-Wallis one-way analysis of variance, and Wilcoxon rank sum testing as post-hoc.

[3] = Pharmacokinetic and drug-drug interaction studies in blood-fed mosquitoes (concentration-time courses, population PK modelling); conditions: for Course / extent of elimination from the mosquitoes: IVM 0.1, KCZ 5, RIF 10, PBO 10 μg/ml in blood, up to 72 h; for Type of elimination kinetics in the mosquito: IVM 0.1, KCZ 5, RIF 10, RTV 10, PBO 10 μg/ml in blood; for Effect of the co-administered CYP modulator on the PK of ivermectin: ivermectin 0.1 μg/ml plus KCZ 5, RIF 10, RTV 10 or PBO 10 μg/ml in blood, 72 h
Aedes aegypti mosquitoes [4] = conditions: IVM 0.1, KCZ 5, RIF 10, RTV 10, PBO 10 μg/ml in blood, 50 mosquitoes

Row | SMILES | Mosquito fertility, Batch 1, hatching rate (Aedes aegypti mosquitoes [1]) | Mosquito fertility, Batch 2, hatching rate (Aedes aegypti mosquitoes [1]) | Mosquito fertility, Batch 3, hatching rate (Aedes aegypti mosquitoes [1]) | Mosquito fecundity, Batch 1, mg eggs (4 days) (Aedes aegypti mosquitoes [2]) | Mosquito fecundity, Batch 2, mg eggs (4 days) (Aedes aegypti mosquitoes [2]) | Mosquito fecundity, Batch 3, mg eggs (4 days) (Aedes aegypti mosquitoes [2]) | Course / extent of elimination from the mosquitoes [3] | Type of elimination kinetics in the mosquito [3] | concentration at 0 h ([3]; female, Aedes aegypti, in vivo, CYP modulator concentration (ng/mg mosquito), Treatment KCZ + IVM (5 µg/ml KCZ, 0.1 µg/ml IVM), Batch 1, 0 h post feeding, single mosquitoes 1-20) | concentration at 72 h ([3]; female, Aedes aegypti, in vivo, CYP modulator concentration (ng/mg mosquito), Treatment KCZ + IVM (5 µg/ml KCZ, 0.1 µg/ml IVM), Batch 1, 72 h post feeding, single mosquitoes 1-20) | Effect of the co-administered CYP modulator on the PK of ivermectin [3] | Effect of the co-administered CYP modulator on the PK of ivermectin ([3]; listed as Ketoconazole) | Share of the dose excreted after 6 h ([3]; ketoconazole 5 μg/ml with ivermectin 0.1 μg/ml in blood) | Tmax ([3]; female, Aedes aegypti, in vivo) | Mosquito survival (%) (Aedes aegypti mosquitoes [4]; 0 days post feeding) | Mosquito survival (%) (Aedes aegypti mosquitoes [4]; 1 day post feeding) | concentration at 0 h ([3]; female, Aedes aegypti, whole mosquito (whole-body extract), oral, CYP modulator concentration (ng/mg mosquito), Treatment RTV + IVM (10 µg/ml RTV, 0.1 µg/ml IVM), Batch 3, 0 h post feeding, single mosquitoes 1-20)
1 | CC(=O)N1CCN(c2ccc(OCC3COC(Cn4ccnc4)(c4ccc(Cl)cc4Cl)O3)cc2)CC1 (stereo not shown) [ketoconazole] | 60% | 73% | 82% | 30.30 mg eggs | 22.14 mg eggs | 33.56 mg eggs | only few samples could be quantified 36 h post-feeding | first order elimination | 639 ng/g | 0 ng/g | not altered | No effect | 75% | – | – | – | –
2 | CCCCOCCOCCOCc1cc2c(cc1CCC)OCO2 [piperonyl butoxide] | 81% | 71% | 86% | 32.86 mg eggs | 20.66 mg eggs | 35.34 mg eggs | – | – | – | – | – | – | – | – | – | – | –
3 | CO[C@H]1/C=C/O[C@@]2(C)Oc3c(C)c(O)c4c(O)c(c(/C=N/N5CCN(C)CC5)c(O)c4c3C2=O)NC(=O)/C(C)=C\C=C\[C@H](C)[C@H](O)[C@@H](C)[C@@H](O)[C@@H](C)[C@H](OC(C)=O)[C@@H]1C [rifampicin] | 83% | 78% | 79% | 32.99 mg eggs | 21.40 mg eggs | 36.14 mg eggs | almost not eliminated during the first 2 days | accumulated over days | – | – | – | – | – | ~36 h | 100% | 100% | –
4 | CC(C)c1nc(CN(C)C(=O)N[C@H](C(=O)N[C@@H](Cc2ccccc2)C[C@H](O)[C@H](Cc2ccccc2)NC(=O)OCc2cncs2)C(C)C)cs1 [ritonavir] | 87% | 74% | 83% | 38.37 mg eggs | 21.29 mg eggs | 33.90 mg eggs | – | – | – | – | – | – | – | – | – | – | 4230 ng/g

— paper PMC7968666, “The pharmacokinetics and drug-drug interactions of ivermectin in Aedes aegypti mosquitoes” (PLoS Pathogens, 2021)
